Measured values from patent US11365410B2, “Production and monitoring of metabolites in cells” (President and Fellows of Harvard College, priority 2015, dated 2022).

Key:
acuR = assay: acuR-based 3HP biosensor induction (indirect, via acrylate); type: cell-based, Rhodobacter sphaeroides; settings: 10 mM 3HP; with pcs^Δ3 and ach
Protocol: Metab Eng, 16, 130-139 hereby incorporated by reference in its entirety). All three reactions are useful for a prpR-based biosensor, but for the acuR-based biosensor, accumulation of acrylyl-CoA rather than propionyl-CoA is necessary. […] Accordingly, the domain responsible for conversion of acrylyl-CoA to propionyl-CoA was removed while preserving the activity of the other two domains. […] A 90-fold increase in fluorescence was obtained when the acuR-based biosensor was induced with 10 mM 3HP. […] Fluorescence remained at background levels for greater than 16 hours in the absence of pcs^Δ3 and ach (see FIG. 17).
Plasmids were constructed using Gibson isothermal assembly methods (see Gibson, D. G., Young, L., Chuang, R. Y., Venter, J. C., Hutchison, C. A., 3rd and Smith, H. O. (2009) Enzymatic assembly of DNA molecules up to several hundred kilobases. Nat Methods, 6, 343-345 hereby incorporated by reference in its entirety) and cloned into DH5α electrocompetent cells purchased from New England Biolabs. Biosynthesis of product molecules was carried out in either BL21 (DE3) or DH5α. The prpR-based 3HP biosensor was implemented as a two-plasmid system. The first plasmid is pPro24-GFP (Addgene plasmid #18880), which expresses GFPuv under the control of the methyl-citrate responsive transcription factor, prpR, on a pBR322 origin of replication providing β-lactam resistance. […]

prpR (E. coli) = assay: prpR-based 3HP biosensor induction (indirect, via 2-methylcitrate); type: cell-based; settings: 12 mM 3-HP; with pcs and prpC
Description: According to a first aspect, 3-HP is transformed into 2-methylcitrate in the presence of a 2-methylcitrate sensor. The resulting system is a 3-HP biosensor. The transcriptional regulator prpR from E. coli is used to control gene expression in proportion to the concentration of 2-methylcitrate inside the cell. This inducible system has been described previously with the aim of sensing propionate—a distinct chemical from 3HP (WO 2007005837 A3, http://www.ncbi.nlm.nih.gov/pubmed/16269719). The endogenous enzyme, 2-methylcitrate synthase (prpC), and the heterologous multifunctional enzyme propionyl-CoA synthase (pcs) from the carbon fixation pathway of Chloroflexus aurantiacus (see Mattozzi, M., Ziesack, M., Voges, M. J., Silver, P. A. and Way, J. C. (2013) Expression of the sub-pathways of the Chloroflexus aurantiacus 3-hydroxypropionate carbon fixation bicycle in E. coli: Toward horizontal transfer of autotrophic growth. Metab Eng, 16, 130-139 hereby incorporated by reference in its entirety) are used to produce 2-methylcitrate from 3-HP. Together the system of three genes (pcs, prpC, prpR) comprises the prpR-based 3HP biosensor (see FIG. 15A). […] As a result of this linkage, 3-HP concentration controls expression of green fluorescent protein (GFP). […] The proportion of 2-methylcitrate produced in this way is proportional to the amount of 3-HP inside the cell. […]

[1] = test system: prpR-based 3HP biosensor (pcs, prpC, prpR); assay: prpR-based 3HP biosensor characterization; type: cell-based, E. coli
Description: According to a first aspect, 3-HP is transformed into 2-methylcitrate in the presence of a 2-methylcitrate sensor. The resulting system is a 3-HP biosensor. The transcriptional regulator prpR from E. coli is used to control gene expression in proportion to the concentration of 2-methylcitrate inside the cell. This inducible system has been described previously with the aim of sensing propionate—a distinct chemical from 3HP (WO 2007005837 A3, http://www.ncbi.nlm.nih.gov/pubmed/16269719). The endogenous enzyme, 2-methylcitrate synthase (prpC), and the heterologous multifunctional enzyme propionyl-CoA synthase (pcs) from the carbon fixation pathway of Chloroflexus aurantiacus (see Mattozzi, M., Ziesack, M., Voges, M. J., Silver, P. A. and Way, J. C. (2013) Expression of the sub-pathways of the Chloroflexus aurantiacus 3-hydroxypropionate carbon fixation bicycle in E. coli: Toward horizontal transfer of autotrophic growth. Metab Eng, 16, 130-139 hereby incorporated by reference in its entirety) are used to produce 2-methylcitrate from 3-HP. Together the system of three genes (pcs, prpC, prpR) comprises the prpR-based 3HP biosensor (see FIG. 15A). […] As a result of this linkage, 3-HP concentration controls expression of green fluorescent protein (GFP). […] The proportion of 2-methylcitrate produced in this way is proportional to the amount of 3-HP inside the cell. The expression of the controlled gene is thus a measurement of intracellular 3-HP concentration.
DH5α cells doubly transformed with plasmids pPro24-GFP and pJKR-PCS, or plasmids pJKR-H-acuR and pJKR-PCSfrag-ACH, were exposed to increasing concentrations of 3-HP and monitored for GFP expression. Cells were grown overnight to saturation before being diluted 1:100 into fresh LB media and incubated at 200 RPM and 37° C. After four hours, 150 μl of the log-phase cells were transferred to 96-well plates and 3HP was added to the appropriate final concentration. Each inoculation and induction was performed in triplicate. Strains lacking the biosensor helper plasmids were included to reveal that the biosensor activation was indeed dependent on the presence of the helper plasmids. In the case of the end-point measurements, fluorescence was measured 16 hours after 3-HP addition with a Biotek HT plate reader (excitation 485/20, emission 528/20). Time course data was collected over a 16 hour period on the same plate reader at 37° C. with fast shaking and 10 minute measurement intervals. Fluorescence was normalized by optical density. Fold induction was determined by dividing the fluorescence obtained at the current induction level by the fluorescence obtained without induction. Error bars represent the 95% confidence interval derived from the standard error of the mean.

For `O=C(O)CCO` [3-HP, 3-hydroxypropionate], the Increase in fluorescence (acuR) was 90 fold, the “Fluorescent response relative to uninduced” value (prpR (E. coli)) was 2.4 fold and the “time to half-maximal fluorescent response” value ([1]; 3-HP induction) was 5 h. For the same compound, the “time to reach 90% induction” value ([1]; 3-HP induction) was “approximately 8 hours”, the “fluorescent response, fold greater than uninduced fluorescence” value ([1]; induced with 12 mM 3-HP) was 2.4 fold and the “response of prpR sensor alone” value ([1]; without helper enzyme pcs) was “cannot detect”.
